{"source": "paper PMC8247773", "about": "“Benzohydrazide and Phenylacetamide Scaffolds: New Putative ParE Inhibitors” (Frontiers in Bioengineering and Biotechnology, 2021)", "key": {"[1]": {"tested_on": "Staphylococcus aureus (NCIM 5022)", "design": "method as in Yele et al., 2020, 2021", "conditions": "ref Yele et al., 2020, 2021; cited from earlier work"}, "E. coli [2]": {"tested_on": "E. coli", "assay": "Checkerboard synergy with FDA approved drugs", "assay_type": "cell-based, Escherichia coli", "conditions": "ciprofloxacin, gentamicin, rifampicin and doxycycline"}, "E. coli ParE enzyme": {"molecular_target": "T1, E. coli ParE enzyme (Escherichia coli, UniProt P20083)", "T1 construct": "purchased ProFoldin, Hudson, United States", "T1 sequence (P20083 whole entry)": "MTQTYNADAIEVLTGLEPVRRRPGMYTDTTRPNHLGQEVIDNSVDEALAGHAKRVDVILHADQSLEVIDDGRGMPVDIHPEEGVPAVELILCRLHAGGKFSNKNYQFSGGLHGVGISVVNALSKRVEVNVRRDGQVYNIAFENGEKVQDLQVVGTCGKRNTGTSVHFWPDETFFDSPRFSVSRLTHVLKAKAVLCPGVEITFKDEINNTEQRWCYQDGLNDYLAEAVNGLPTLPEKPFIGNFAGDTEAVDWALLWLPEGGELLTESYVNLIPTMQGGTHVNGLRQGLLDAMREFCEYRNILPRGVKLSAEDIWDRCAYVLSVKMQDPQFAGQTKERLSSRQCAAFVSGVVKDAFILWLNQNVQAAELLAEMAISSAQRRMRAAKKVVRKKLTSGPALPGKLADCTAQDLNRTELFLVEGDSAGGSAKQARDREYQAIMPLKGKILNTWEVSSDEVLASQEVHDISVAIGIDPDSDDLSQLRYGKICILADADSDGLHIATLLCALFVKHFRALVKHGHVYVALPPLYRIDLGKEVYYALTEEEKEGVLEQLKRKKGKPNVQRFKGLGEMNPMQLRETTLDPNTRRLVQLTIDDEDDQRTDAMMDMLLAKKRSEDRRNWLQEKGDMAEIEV", "T1 sequence (P0AFI2 whole entry, further chain)": "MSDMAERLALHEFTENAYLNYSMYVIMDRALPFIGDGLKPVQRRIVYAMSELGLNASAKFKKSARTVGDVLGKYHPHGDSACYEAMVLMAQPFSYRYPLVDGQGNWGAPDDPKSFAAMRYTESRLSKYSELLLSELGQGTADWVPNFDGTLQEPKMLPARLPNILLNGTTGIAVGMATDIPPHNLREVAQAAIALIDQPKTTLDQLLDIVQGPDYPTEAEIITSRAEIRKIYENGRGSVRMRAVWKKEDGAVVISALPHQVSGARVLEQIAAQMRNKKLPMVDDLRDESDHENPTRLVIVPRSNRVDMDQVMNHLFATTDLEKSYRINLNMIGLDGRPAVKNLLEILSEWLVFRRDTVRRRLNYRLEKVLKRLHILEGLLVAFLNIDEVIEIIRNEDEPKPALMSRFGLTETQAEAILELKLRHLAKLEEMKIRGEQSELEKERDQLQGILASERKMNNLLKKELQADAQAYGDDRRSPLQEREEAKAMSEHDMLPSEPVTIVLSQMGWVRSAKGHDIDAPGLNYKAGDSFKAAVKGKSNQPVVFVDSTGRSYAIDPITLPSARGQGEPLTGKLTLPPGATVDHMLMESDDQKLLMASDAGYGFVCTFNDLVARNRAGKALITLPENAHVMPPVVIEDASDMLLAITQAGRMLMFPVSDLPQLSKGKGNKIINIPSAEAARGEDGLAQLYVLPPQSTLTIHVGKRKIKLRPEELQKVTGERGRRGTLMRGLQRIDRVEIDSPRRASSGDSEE", "assay": "E. coli ParE ATPase enzyme inhibition assay (ProFoldin kit, malachite green)", "assay_type": "biochemical", "conditions": "ATPase activity, mean ± SD (n = 3)", "procedure,_shortened": "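E. coli ParE ATPase activity measured as inorganic phosphate released from ATP hydrolysis in the presence of DNA. Reaction ran 1 h at 37°C, quenched with malachite green dye, absorbance read at 650 nm after 5 min. IC50 from non-linear regression against no-enzyme and no-compound controls.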"}, "E. coli [3]": {"tested_on": "E. coli", "assay": "Post antibiotic effect (PAE)", "assay_type": "cell-based, Escherichia coli", "conditions": "for Time for 1 log10: untreated control 2 h"}, "[4]": {"tested_on": "Escherichia coli (NCIM 2065)", "assay": "Minimum bactericidal concentration (MBC)", "assay_type": "cell-based", "conditions": "E. Coli (NCIM 2065); for MBC/MIC: ratio ≤2 bactericidal, ≥4 tolerance", "procedure": "(§1) MBC can be defined as the minimum concentration of a compound required to kill the bacteria over a fixed period under precise conditions. […] Colonies were counted, and colony forming unit (CFU) per milliliter was calculated."}, "[5]": {"tested_on": "Pseudomonas aeruginosa (NCIM 2036)", "design": "method as in Yele et al., 2020, 2021", "conditions": "ref Yele et al., 2020, 2021; cited from earlier work"}, "[6]": {"tested_on": "Klebsiella pneumonia (NCIM 2706)", "design": "method as in Yele et al., 2020, 2021", "conditions": "ref Yele et al., 2020, 2021; cited from earlier work"}, "E. coli [7]": {"tested_on": "E. coli", "assay": "Time-kill kinetics", "assay_type": "cell-based, Escherichia coli", "conditions": "0.5× and 1.0× MIC, 0-24 h", "procedure": "Bactericidal activity was evaluated for the compounds by the time-kill kinetics. […] 50 μL aliquot of the culture was inoculated at regular time intervals of 0, 2, 4, 8, 16, and 24 h onto the solidified agar plates, followed by incubation at 37°C for 24 h. Ciprofloxacin is used as a reference throughout the study. CFU was calculated by the colonies formed on the agar plate at each time interval. Time-kill curves were plotted using the CFU/mL of surviving bacteria at each time point in the absence or presence of the compound ([Tsuji et al., 2008])."}, "Vero cells [8]": {"tested_on": "Vero cells"}, "MRSA (ATCC43300) [9]": {"tested_on": "MRSA (ATCC43300)", "assay": "Antibacterial susceptibility test, microbroth dilution MIC", "assay_type": "cell-based, methicillin-resistant Staphylococcus aureus", "conditions": "mean ± SD"}, "[10]": {"tested_on": "Escherichia coli (NCIM 2567)", "design": "method as in Yele et al., 2020, 2021", "conditions": "ref Yele et al., 2020, 2021; cited from earlier work"}, "[11]": {"tested_on": "Staphylococcus epidermis (NCIM 2493)", "design": "method as in Yele et al., 2020, 2021", "conditions": "ref Yele et al., 2020, 2021; cited from earlier work"}, "[12]": {"tested_on": "Mycobacterium tuberculosis (NCIM 2984)", "design": "method as in Yele et al., 2020, 2021", "conditions": "ref Yele et al., 2020, 2021; cited from earlier work"}, "MRSA (NCIM 5021) [13]": {"tested_on": "MRSA (NCIM 5021)", "assay": "Antibacterial susceptibility test, microbroth dilution MIC", "assay_type": "cell-based, methicillin-resistant Staphylococcus aureus", "conditions": "mean ± SD"}, "[14]": {"tested_on": "Bacillus subtilis (NCIM 2545)", "design": "method as in Yele et al., 2020, 2021", "conditions": "ref Yele et al., 2020, 2021; cited from earlier work"}, "Vero cells [15]": {"tested_on": "Vero cells", "assay": "In vitro cytotoxicity MTT assay", "conditions": "CC50 Vero cells / IC50"}, "[16]": {"tested_on": "Escherichia coli (NCIM 2065)", "assay": "Antibacterial susceptibility test, microbroth dilution MIC", "assay_type": "cell-based", "conditions": "E. Coli (NCIM 2065), mean ± SD"}, "MRSA (ATCC43300) [17]": {"tested_on": "MRSA (ATCC43300)", "assay": "Minimum bactericidal concentration (MBC)", "assay_type": "cell-based, methicillin-resistant Staphylococcus aureus", "procedure": "as §1"}, "MRSA (NCIM 5021) [18]": {"tested_on": "MRSA (NCIM 5021)", "assay": "Minimum bactericidal concentration (MBC)", "assay_type": "cell-based, methicillin-resistant Staphylococcus aureus", "procedure": "as §1"}, "[19]": {"tested_on": "Salmonella typhi (NCIM 2501)", "design": "method as in Yele et al., 2020, 2021", "conditions": "ref Yele et al., 2020, 2021; cited from earlier work"}, "[20]": {"assay": "In vitro cytotoxicity MTT assay", "conditions": "African green monkey, Vero cells"}, "[21]": {"conditions": "Staphylococcus aureus, read-out: Minimum inhibitory concentration"}, "[22]": {"conditions": "Staphylococcus aureus, read-out: MBC"}}, "note": "Values joined by “and” are separate entries in the source; they are usually repeats but may differ in a detail not shown here. Equal values may be shown once. Read-outs that look alike come from different tables or passages of the source."}
{"compound": "O=C(COc1ccccc1NC(=O)CCl)Nc1ccc(C(=O)O)cc1Br", "note": "[Compound 5]", "values": [{"measurement": "Minimum inhibitory concentration (MIC) S. a", "setting": "[1]", "value": 2.64}, {"measurement": "Synergy with FDA-approved antibiotics", "setting": "E. coli [2]", "value": "synergized"}, {"measurement": "IC50 against E. coli ParE enzyme", "setting": "E. coli ParE enzyme", "value": "0.35 ± 0.03", "unit": "µg/mL"}, {"measurement": "PAE = T - C", "setting": "E. coli [3]; 1 × mic", "value": 1, "unit": "h"}, {"measurement": "Time for 1 log10", "setting": "E. coli [3]; 1 × mic", "value": 3, "unit": "h"}, {"measurement": "PAE = T - C", "setting": "E. coli [3]; 10 × mic", "value": "~2", "unit": "h"}, {"measurement": "Time for 1 log10", "setting": "E. coli [3]; 10 × mic", "value": 4, "unit": "h"}, {"measurement": "MBC", "setting": "[4]", "value": "0.64 ± 0.42", "unit": "µg/mL"}, {"measurement": "MBC/MIC", "setting": "[4]", "value": 1}, {"measurement": "Minimum inhibitory concentration (MIC) P. a", "setting": "[5]", "value": 6.25}, {"measurement": "Minimum inhibitory concentration (MIC) K. p", "setting": "[6]", "value": 7.52}, {"measurement": "Time-kill kinetics result", "setting": "E. coli [7]", "value": "bactericidal property"}, {"measurement": "CC50", "setting": "Vero cells [8]", "value": 61.7583, "unit": "µg/mL"}, {"measurement": "Minimum inhibitory concentration", "setting": "MRSA (ATCC43300) [9]", "value": "0.68 µg/mL and 0.68 ± 0.08 µg/mL"}, {"measurement": "Minimum inhibitory concentration (MIC) E. c", "setting": "[10]", "value": 8.25}, {"measurement": "Minimum inhibitory concentration (MIC) S. e", "setting": "[11]", "value": 5.63}, {"measurement": "Minimum inhibitory concentration (MIC) M. t", "setting": "[12]", "value": 0.78}, {"measurement": "Minimum inhibitory concentration", "setting": "MRSA (NCIM 5021) [13]", "value": "0.72 ± 0.05", "unit": "µg/mL"}, {"measurement": "Minimum inhibitory concentration (MIC) B. s", "setting": "[14]", "value": 7.82}, {"measurement": "SI (CC50/IC50)", "setting": "Vero cells [15]", "value": 176.4531}, {"measurement": "Minimum inhibitory concentration", "setting": "[16]", "value": "0.64 µg/mL and 0.64 ± 0.03 µg/mL"}, {"measurement": "MBC", "setting": "MRSA (ATCC43300) [17]", "value": "0.68 ± 0.08", "unit": "µg/mL"}, {"measurement": "MBC/MIC", "setting": "MRSA (ATCC43300) [17]", "value": 1}, {"measurement": "MBC", "setting": "MRSA (NCIM 5021) [18]", "value": "1.54 ± 0.11", "unit": "µg/mL"}, {"measurement": "MBC/MIC", "setting": "MRSA (NCIM 5021) [18]", "value": 2}]}
{"compound": "O=C(CCl)Nc1ccccc1OCC(=O)Nc1ccc(C(=O)O)cc1[N+](=O)[O-]", "note": "[Compound 8]", "values": [{"measurement": "Minimum inhibitory concentration (MIC) S. a", "setting": "[1]", "value": 8.64}, {"measurement": "IC50", "setting": "E. coli ParE enzyme; read-out: IC50 against E. coli ParE enzyme (converted)", "value": 662, "unit": "nM"}, {"measurement": "MBC/MIC", "setting": "[4]", "value": 1}, {"measurement": "MBC", "setting": "[4]; Escherichia coli, NCIM2065, read-out: MBC", "value": "0.93 ± 0.03", "unit": "µg/mL"}, {"measurement": "Minimum inhibitory concentration (MIC) P. a", "setting": "[5]", "value": 0.69}, {"measurement": "Minimum inhibitory concentration (MIC) K. p", "setting": "[6]", "value": 0.72}, {"measurement": "Minimum inhibitory concentration (MIC) S. t", "setting": "[19]", "value": 0.72}, {"measurement": "MIC", "setting": "MRSA (ATCC43300) [9]; [21]", "value": "1.06 ± 0.12", "unit": "µg/mL"}, {"measurement": "Minimum inhibitory concentration (MIC) E. c", "setting": "[10]", "value": 0.70}, {"measurement": "Minimum inhibitory concentration (MIC) S. e", "setting": "[11]", "value": 4.83}, {"measurement": "Minimum inhibitory concentration (MIC) M. t", "setting": "[12]", "value": 1.38}, {"measurement": "MIC", "setting": "MRSA (NCIM 5021) [13]; [21]", "value": 0.66, "unit": "µg/mL"}, {"measurement": "Minimum inhibitory concentration", "setting": "MRSA (NCIM 5021) [13]", "value": "0.66 ± 0.13", "unit": "µg/mL"}, {"measurement": "Minimum inhibitory concentration (MIC) B. s", "setting": "[14]", "value": 7.80}, {"measurement": "CC50 at 48 h", "setting": "[20]", "value": 257, "unit": "µg/mL"}, {"measurement": "MIC", "setting": "[16]; Escherichia coli, NCIM2065, read-out: Minimum inhibitory concentration", "value": "0.93 ± 0.03", "unit": "µg/mL"}, {"measurement": "MBC/MIC", "setting": "MRSA (ATCC43300) [17]", "value": 2}, {"measurement": "MBC", "setting": "MRSA (ATCC43300) [17]; [22]", "value": "2.46 ± 0.12", "unit": "µg/mL"}, {"measurement": "MBC/MIC", "setting": "MRSA (NCIM 5021) [18]", "value": 1}, {"measurement": "MBC", "setting": "MRSA (NCIM 5021) [18]; [22]", "value": "0.63 ± 0.13", "unit": "µg/mL"}]}
